# PubChem BioAssay (NCI)
#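 Grown in 96-well plates, cells were treated for 48 hours with each compound at five concentrations. Insufficient inhibition: endpoint recorded as highest concentration tested. GI50 = concentration required for 50% inhibition of growth. TGI denotes the concentration required for complete inhibition of growth.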
# Columns and labels:
# Assay in all cases: DTP human tumour cell line panel, 48 h
# [1] = test system: 786-0 renal
# [2] = test system: A498 renal
# [3] = test system: A549 NSCLC
# [4] = test system: ACHN renal
# [5] = test system: BT-549 breast
# [6] = test system: CAKI-1 renal
# [7] = test system: CCRF-CEM leukemia
# [8] = test system: COLO 205 colon
# [9] = test system: DU-145 prostate
# [10] = test system: EKVX NSCLC
# [11] = test system: HCC-2998 colon
# [12] = test system: HCT-116 colon
# [13] = test system: HCT-15 colon
# [14] = test system: HL-60(TB) leukemia
# [15] = test system: HOP-62 NSCLC
# [16] = test system: HOP-92 NSCLC
# [17] = test system: HS 578T breast
# [18] = test system: HT29 colon
# [19] = test system: IGROV1 ovarian
# [20] = test system: K-562 leukemia
# [21] = test system: KM12 colon
# [22] = test system: LOX IMVI melanoma
# [23] = test system: M14 melanoma
# [24] = test system: MALME-3M melanoma
# [25] = test system: MCF7 breast
# [26] = test system: MDA-MB-231 breast
# [27] = test system: MDA-MB-435
# [28] = test system: MOLT-4 leukemia
# [29] = test system: NCI-H226 lung
# [30] = test system: NCI-H23 lung
# [31] = test system: NCI-H460 lung
# [32] = test system: NCI-H522 lung
# [33] = test system: NCI/ADR-RES ovarian
# [34] = test system: OVCAR-3 ovarian
# [35] = test system: OVCAR-4 ovarian
# [36] = test system: OVCAR-5 ovarian
# [37] = test system: OVCAR-8 ovarian
# [38] = test system: PC-3 prostate
# [39] = test system: RPMI-8226 leukemia
# [40] = test system: RXF 393 renal
# [41] = test system: SF-268 CNS
# [42] = test system: SF-295 CNS
# [43] = test system: SF-539 CNS
# [44] = test system: SK-MEL-2 melanoma
# [45] = test system: SK-MEL-28 melanoma
# [46] = test system: SK-MEL-5 melanoma
# [47] = test system: SK-OV-3 ovarian
# [48] = test system: SN12C renal
# [49] = test system: SNB-19 CNS
# [50] = test system: SNB-75 CNS
# [51] = test system: SR leukemia
# [52] = test system: SW-620 colon
# [53] = test system: T-47D breast
# [54] = test system: TK-10 renal
# [55] = test system: U251 CNS
# [56] = test system: UACC-257 melanoma
# [57] = test system: UACC-62 melanoma
# [58] = test system: UO-31 renal
smiles,measurement,setting,value
Cc1cccc2c3c(sc12)C(c1ccc(Cl)cc1)C(C#N)=C(/N=C/c1ccc(Cl)cc1)O3 (stereo not given),GI50,[1],653 nM
same,TGI,[1],27800 nM
same,GI50,[2],74.8 nM
same,TGI,[2],953 nM
same,GI50,[3],489 nM
same,TGI,[3],> 100000 nM
same,GI50,[4],858 nM
same,TGI,[4],> 100000 nM
same,GI50,[5],1380 nM
same,TGI,[5],> 57900 nM
same,GI50,[6],265 nM
same,TGI,[6],20700 nM
same,GI50,[7],381 nM
same,TGI,[7],> 63700 nM
same,GI50,[8],456 nM
same,GI50,[9],485 nM
same,TGI,[9],> 100000 nM
same,GI50,[10],565 nM
same,TGI,[10],> 100000 nM
same,GI50,[11],1040 nM
same,TGI,[11],11200 nM
same,GI50,[12],402 nM
same,TGI,[12],> 100000 nM
same,GI50,[13],392 nM
same,TGI,[13],> 100000 nM
same,GI50,[14],325 nM
same,TGI,[14],2540 nM
same,GI50,[15],573 nM
same,TGI,[15],36500 nM
same,GI50,[16],6040 nM
same,TGI,[16],36700 nM
same,GI50,[17],258 nM
same,TGI,[17],2640 nM
same,GI50,[18],388 nM
same,TGI,[18],> 52000 nM
same,GI50,[19],413 nM
same,TGI,[19],> 100000 nM
same,GI50,[20],281 nM
same,TGI,[20],> 46500 nM
same,GI50,[21],448 nM
same,TGI,[21],> 100000 nM
same,GI50,[22],651 nM
same,TGI,[22],> 100000 nM
same,GI50,[23],308 nM
same,TGI,[23],> 52600 nM
same,GI50,[24],595 nM
same,TGI,[24],> 100000 nM
same,GI50,[25],301 nM
same,TGI,[25],> 100000 nM
same,GI50,[26],754 nM
same,TGI,[26],20600 nM
same,GI50,[27],172 nM
same,TGI,[27],407 nM
same,GI50,[28],517 nM
same,TGI,[28],> 100000 nM
same,GI50,[29],750 nM
same,TGI,[29],> 19700 nM
same,GI50,[30],446 nM
same,TGI,[30],14200 nM
same,GI50,[31],425 nM
same,TGI,[31],> 100000 nM
same,GI50,[32],304 nM
same,TGI,[32],3120 nM
same,GI50,[33],307 nM
same,TGI,[33],4270 nM
same,GI50,[34],393 nM
same,TGI,[34],6810 nM
same,GI50,[35],2170 nM
same,TGI,[35],> 100000 nM
same,GI50,[36],558 nM
same,TGI,[36],> 100000 nM
same,GI50,[37],460 nM
same,TGI,[37],> 100000 nM
same,GI50,[38],392 nM
same,TGI,[38],> 100000 nM
same,GI50,[39],408 nM
same,TGI,[39],> 28300 nM
same,GI50,[40],240 nM
same,TGI,[40],776 nM
same,GI50,[41],1930 nM
same,TGI,[41],46200 nM
same,GI50,[42],267 nM
same,TGI,[42],2370 nM
same,GI50,[43],298 nM
same,TGI,[43],1260 nM
same,GI50,[44],2860 nM
same,TGI,[44],29900 nM
same,GI50,[45],4730 nM
same,TGI,[45],> 100000 nM
same,GI50,[46],470 nM
same,TGI,[46],> 100000 nM
same,GI50,[47],3620 nM
same,TGI,[47],40000 nM
same,GI50,[48],623 nM
same,TGI,[48],> 100000 nM
same,GI50,[49],457 nM
same,TGI,[49],24300 nM
same,GI50,[50],186 nM
same,TGI,[50],748 nM
same,GI50,[51],360 nM
same,TGI,[51],> 34900 nM
same,GI50,[52],434 nM
same,TGI,[52],> 100000 nM
same,GI50,[53],625 nM
same,TGI,[53],> 100000 nM
same,GI50,[54],12200 nM
same,TGI,[54],51300 nM
same,GI50,[55],443 nM
same,TGI,[55],21300 nM
same,GI50,[56],> 100000 nM
same,TGI,[56],> 100000 nM
same,GI50,[57],337 nM
same,TGI,[57],12700 nM
same,GI50,[58],653 nM
same,TGI,[58],> 100000 nM
